{"source": "paper PMC6944458", "about": "“Intracellular and in vivo evaluation of imidazo[2,1-b]thiazole-5-carboxamide anti-tuberculosis compounds” (PLoS ONE, 2020)", "type_in_all_cases": "cell-based, Mycobacterium tuberculosis", "key": {"[1]": {"system": "Rifampicin resistant strain ACTCC35838", "assay": "microbe, parasite or virus in culture", "details": "read-out: MIC RIF res2"}, "[2]": {"system": "Rifampicin resistant strain derived from H37Rv Mtb, ropB mutant (S522L)"}, "[3]": {"system": "Fluoroquinolone resistant strain derived from H37Rv Mtb, gyrA mutant (D94N)"}, "[4]": {"system": "Isoniazid resistant strain derived from H37Rv Mtb, katG mutant (Y155* = truncation)"}, "[5]": {"system": "Isoniazid resistant strain ACTCC35822"}}, "note": "Like-named read-outs stand apart in the source and are kept apart here."}
{"smiles": "CCc1nc2sc(C)cn2c1C(=O)NCc1ccc(Oc2cccc(C(F)(F)F)c2)nc1", "note": "[ND-12024, 6-Ethyl-2-methyl-N-((6-(3-(trifluoromethyl)phenoxy)yridine-3-yl)methyl)imidazo[2,1-b]thiazole-5-carboxamide]", "values": [{"measurement": "MIC", "setting": "[1]; Mycobacterium tuberculosis", "result": 0.13, "unit": "µM"}, {"measurement": "MIC RIF res1", "setting": "[2]", "result": 0.047, "unit": "µM"}, {"measurement": "MIC FQ res", "setting": "[3]", "result": 0.40, "unit": "µM"}, {"measurement": "MIC INH res1", "setting": "[4]", "result": 0.49, "unit": "µM"}, {"measurement": "MIC INH res2", "setting": "[5]", "result": 0.22, "unit": "µM"}]}
{"smiles": "C[C@H]1COc2c(N3CCN(C)CC3)c(F)cc3c(=O)c(C(=O)O)cn1c23", "note": "[LEV, Levoflaxacin]", "values": [{"measurement": "MIC", "setting": "[1]", "result": 3.83, "unit": "µM"}, {"measurement": "MIC RIF res1", "setting": "[2]", "result": 3.43, "unit": "µM"}, {"measurement": "MIC FQ res", "setting": "[3]", "result": 91, "unit": "µM"}, {"measurement": "MIC INH res1", "setting": "[4]", "result": 3.97, "unit": "µM"}, {"measurement": "MIC INH res2", "setting": "[5]; ACTCC35822", "result": 5.83, "unit": "µM"}]}
{"smiles": "NNC(=O)c1ccncc1", "note": "[INH, Isoniazid]", "values": [{"measurement": "MIC", "setting": "[1]; Mycobacterium tuberculosis", "result": 0.37, "unit": "µM"}, {"measurement": "MIC RIF res1", "setting": "[2]", "result": 0.160, "unit": "µM"}, {"measurement": "MIC FQ res", "setting": "[3]", "result": 0.34, "unit": "µM"}, {"measurement": "MIC INH res1", "setting": "[4]", "result": ">200", "unit": "µM"}, {"measurement": "MIC INH res2", "setting": "[5]", "result": ">200", "unit": "µM"}]}
{"smiles": "Cc1cn2c(C(=O)NCc3ccc(N4CCN(c5ccc(C(F)(F)F)cn5)CC4)c(F)c3)c(C)nc2s1", "note": "[ND-11543, N-(3-fluoro-4-(4-(5-(trifluoromethyl)pyridin-2-yl)piperazin-1-yl)benzyl)-2,6-dimethylimidazo[2,1-b]thiazole-5-carboxamide]", "values": [{"measurement": "MIC", "setting": "[1]; Mycobacterium tuberculosis", "result": 0.0057, "unit": "µM"}, {"measurement": "MIC RIF res1", "setting": "[2]", "result": 0.0017, "unit": "µM"}, {"measurement": "MIC FQ res", "setting": "[3]", "result": 0.010, "unit": "µM"}, {"measurement": "MIC INH res1", "setting": "[4]", "result": 0.012, "unit": "µM"}, {"measurement": "MIC INH res2", "setting": "[5]", "result": 0.0047, "unit": "µM"}]}
{"smiles": "Cc1cn2c(C(=O)NCc3ccc(N4CCS(=O)(=O)CC4)c(F)c3)c(C)nc2s1", "note": "[ND-11903, N-(4-(1,1-Dioxidothiomorpholino)-3-fluorobenzyl)-2,6-dimethylimidazo[2,1-b]thiazole-5-carboxamide]", "values": [{"measurement": "MIC", "setting": "[1]; Mycobacterium tuberculosis", "result": 7, "unit": "µM"}, {"measurement": "MIC RIF res1", "setting": "[2]", "result": 2.9, "unit": "µM"}, {"measurement": "MIC FQ res", "setting": "[3]", "result": 3.2, "unit": "µM"}, {"measurement": "MIC INH res1", "setting": "[4]", "result": 6.5, "unit": "µM"}, {"measurement": "MIC INH res2", "setting": "[5]", "result": 5.0, "unit": "µM"}]}
{"smiles": "CCc1nc2ccc(Cl)cn2c1C(=O)NCc1ccc(N2CCC(c3ccc(OC(F)(F)F)cc3)CC2)cc1", "note": "[Q203]", "values": [{"measurement": "MIC", "setting": "[1]; Mycobacterium tuberculosis", "result": 0.0056, "unit": "µM"}, {"measurement": "MIC RIF res1", "setting": "[2]", "result": 0.0030, "unit": "µM"}, {"measurement": "MIC FQ res", "setting": "[3]", "result": 0.0058, "unit": "µM"}, {"measurement": "MIC INH res1", "setting": "[4]", "result": 0.0074, "unit": "µM"}, {"measurement": "MIC INH res2", "setting": "[5]", "result": 0.0038, "unit": "µM"}]}
{"smiles": "CO[C@H]1/C=C/O[C@@]2(C)Oc3c(C)c(O)c4c(O)c(c(/C=N/N5CCN(C)CC5)c(O)c4c3C2=O)NC(=O)/C(C)=C\\C=C\\[C@H](C)[C@H](O)[C@@H](C)[C@@H](O)[C@@H](C)[C@H](OC(C)=O)[C@@H]1C", "note": "[RIF, Rifampicin]", "values": [{"measurement": "MIC", "setting": "[1]; Mycobacterium tuberculosis", "result": "> 50", "unit": "µM"}, {"measurement": "MIC RIF res1", "setting": "[2]", "result": 3.2, "unit": "µM"}, {"measurement": "MIC FQ res", "setting": "[3]", "result": 0.043, "unit": "µM"}, {"measurement": "MIC INH res1", "setting": "[4]", "result": 0.027, "unit": "µM"}, {"measurement": "MIC INH res2", "setting": "[5]", "result": 0.013, "unit": "µM"}]}
